Test results reported in US10669302B2, “Crystal form of fludarabine phosphate, preparation method therefor, and application thereof” (Zhejiang Hisun Pharmaceutical Co., Ltd., priority 2015, dated 2020).

Columns and labels:
[1] = Tests of dissolution rates (turbidimeter, purified water); assay type: physicochemical; design: Reading: unit not given here; details: for Solution state / Reading / Turbidity: 50 mg in 10 ml purified water; for Clarity achieved in purified water: in a short period of time, summary of Table 3; for Reading: turbidimeter
Description: The turbidimeter and the test conditions involved in the present invention are: turbidimeter model: MERCK TURBIQUANT 1500IR; operation method: the purified water was used as a zero point control, 50 mg of crystal form I of fludarabine phosphate and 50 mg of crystal form II of fludarabine phosphate were dissolved in 10 ml of purified water respectively as test samples, the specific test data can be seen in Table 3.
Tests of Dissolution Rates for Crystal Form I and Crystal Form II of Fludarabine Phosphate

[2] = Stability tests (sealed PE and aluminum foil bags, liquid chromatography); assay type: physicochemical; details: for Stability in words: under room temperature and refrigerated conditions, summary of Table 4
Description: The liquid chromatography test conditions involved in the present invention are: chromatographic column: SHIMADZU, VP-ODS, 4.6 mm×15 cm 5 μm or equivalent;
mobile phase A: 10 mM monopotassium phosphate (0.01 mol/l):methanol=47:3; detection wavelength: 260 nm; flow rate: 1.0 ml/min; injection volume: 10 μl.
Packaging condition: crystal form I and crystal form II of fludarabine phosphate were first sealed and packaged with PE bags respectively, and then sealed and packaged with aluminum foil bags outside, the samples were reserved at room temperature and refrigerated conditions, the samples were tested with the liquid chromatography. The test condition of the liquid chromatography is described in SUMMARY OF THE INVENTION section of this application.

[3] = before the samples were reserved
[4] = refrigerated (2-10° C.), humidity 75%, reserved for five months
[5] = refrigerated (2-10° C.), humidity 75%, reserved for four months
[6] = refrigerated (2-10° C.), humidity 75%, reserved for one month
[7] = refrigerated (2-10° C.), humidity 75%, reserved for six months
[8] = refrigerated (2-10° C.), humidity 75%, reserved for three months
[9] = refrigerated (2-10° C.), humidity 75%, reserved for two months
[10] = room temperature (10-30° C.), humidity 75%, reserved for five months
[11] = room temperature (10-30° C.), humidity 75%, reserved for four months
[12] = room temperature (10-30° C.), humidity 75%, reserved for one month
[13] = room temperature (10-30° C.), humidity 75%, reserved for six months
[14] = room temperature (10-30° C.), humidity 75%, reserved for three months
[15] = room temperature (10-30° C.), humidity 75%, reserved for two months
[16] = 10 s, listed as Cyrstal form II
[17] = 40 s, listed as Cyrstal form II

Solution state ([1]; 70 s) | Solution state ([1]; 80 s) | Solution state ([1]; 90 s) | Solution state ([1]; 100 s) | Clarity achieved in purified water [1] | Liquid chromatography result of stability sample [2, 3] [%] | Liquid chromatography result of stability sample [2, 4] [%] | Liquid chromatography result of stability sample [2, 5] [%] | Liquid chromatography result of stability sample [2, 6] [%] | Liquid chromatography result of stability sample [2, 7] [%] | Liquid chromatography result of stability sample [2, 8] [%] | Liquid chromatography result of stability sample [2, 9] [%] | Liquid chromatography result of stability sample [2, 10] [%] | Liquid chromatography result of stability sample [2, 11] [%] | Liquid chromatography result of stability sample [2, 12] [%] | Liquid chromatography result of stability sample [2, 13] [%] | Liquid chromatography result of stability sample [2, 14] [%] | Liquid chromatography result of stability sample [2, 15] [%] | Stability in words [2] | Compound | further results
Clear | Clear | Clear | Clear | good clarity | 99.685 | 99.685 | 99.685 | 99.685 | 99.685 | 99.685 | 99.685 | 99.684 | 99.684 | 99.685 | 99.684 | 99.685 | 99.685 | good stabilities | Nc1nc(F)nc2c1ncn2[C@@H]1O[C@H](COP(=O)(O)O)[C@@H](O)[C@@H]1O [Crystal form I, 9-β-D-arabinofuranosyl-2-fluoroadenine-5′-phosphate] | Solution state ([1]; 5 s): Clear; Solution state ([1]; 10 s): Clear; Solution state ([1]; 20 s): Clear; Solution state ([1]; 30 s): Clear; Solution state ([1]; 40 s): Clear; Solution state ([1]; 50 s): Clear; Solution state ([1]; 60 s): Clear; Reading ([1]; 5 s): 2.2; Reading ([1]; 10 s): 1.75; Reading ([1]; 20 s): 1.75; Reading ([1]; 30 s): 1.75; Reading ([1]; 40 s): 1.75; Reading ([1]; 50 s): 1.75; Reading ([1]; 60 s): 1.75; Reading ([1]; 70 s): 1.75; Reading ([1]; 80 s): 1.75; Reading ([1]; 90 s): 1.75; Reading ([1]; 100 s): 1.75
Clear | Clear | Clear | Clear | good clarity | 99.677 | 99.677 | 99.677 | 99.677 | 99.677 | 99.677 | 99.677 | 99.663 | 99.663 | 99.673 | 99.663 | 99.667 | 99.668 | good stabilities | Nc1nc(F)nc2c1ncn2[C@@H]1O[C@H](COP(=O)(O)O)[C@@H](O)[C@@H]1O [Crystal form II, 9-β-D-arabinofuranosyl-2-fluoroadenine-5′-phosphate] | Solution state ([1]; 5 s, listed as Cyrstal form II): Turbid; Turbidity ([1]; 5 s, listed as Cyrstal form II): Sample >1; Solution state [1, 16]: Turbid; Turbidity [1, 16]: Sample >1; Solution state ([1]; 20 s, listed as Cyrstal form II): Turbid; Solution state ([1]; 30 s, listed as Cyrstal form II): Turbid; Solution state [1, 17]: Turbid; Reading [1, 17]: 6.41; Reading ([1]; 50 s, listed as Cyrstal form II): 4.54; Reading ([1]; 60 s, listed as Cyrstal form II): 3.32; Reading ([1]; 70 s, listed as Cyrstal form II): 2.56; Reading ([1]; 80 s, listed as Cyrstal form II): 2.41; Reading ([1]; 90 s, listed as Cyrstal form II): 2.29; Reading ([1]; 100 s, listed as Cyrstal form II): 2.29
